# From patent publication US8840866B2, “Styrylpyridine derivatives and their use for binding and imaging amyloid plaques” (The Trustees of the University of Pennsylvania, priority 2006, dated 2014)
# Assay: Organ distribution in normal ICR mice after iv injection of radiolabeled tracer
# Assay type: in vivo
# Conditions: [125I]-labeled tracer
# Experimental: The mice (n=3 for each time point) were sacrificed by cervical dislocation at designated time-points post injection. The organs of interest were removed and weighed, and the radioactivity was counted with an automatic gamma counter. The percentage dose per organ was calculated by a comparison of the tissue counts to suitably diluted aliquots of the injected material. The total activity of the blood was calculated under the assumption that it is 7% of the total body weight. The % dose/g of samples was calculated by comparing the sample counts with the count of the diluted initial dose.
structure (smiles),measurement,setting,value
"CNc1ccc(/C=C/c2cnc(OCCOCCOCCF)c(I)c2)cc1 [[^125I]13b, (E)-(5-Iodo-6-{2-[2-(2-fluoroethoxy)ethoxy]ethoxy}pyridin-3-yl)-2-(4-methylaminophenyl)-ethylene]",Biodistribution: Blood,2 min,4.37 ± 1.07 % dose/g
same,Biodistribution: Brain,2 min,6.22 ± 1.01 % dose/g
same,Biodistribution: Heart,2 min,9.85 ± 1.78 % dose/g
same,Biodistribution: Kidney,2 min,9.03 ± 6.81 % dose/g
same,Biodistribution: Liver,2 min,26.24 ± 4.47 % dose/g
same,Biodistribution: Lung,2 min,6.85 ± 0.27 % dose/g
same,Biodistribution: Muscle,2 min,1.04 ± 0.25 % dose/g
same,Biodistribution: Skin,2 min,1.48 ± 0.07 % dose/g
same,Biodistribution: Spleen,2 min,4.41 ± 1.05 % dose/g
same,Biodistribution: Thyroid,2 min,5.74 ± 0.42 % dose/g
same,Biodistribution: Blood,30 min,3.83 ± 1.11 % dose/g
same,Biodistribution: Brain,30 min,1.23 ± 0.13 % dose/g
same,Biodistribution: Heart,30 min,2.54 ± 0.37 % dose/g
same,Biodistribution: Kidney,30 min,3.40 ± 0.76 % dose/g
same,Biodistribution: Liver,30 min,11.47 ± 2.10 % dose/g
same,Biodistribution: Lung,30 min,3.01 ± 0.96 % dose/g
same,Biodistribution: Muscle,30 min,1.11 ± 0.34 % dose/g
same,Biodistribution: Skin,30 min,2.95 ± 0.81 % dose/g
same,Biodistribution: Spleen,30 min,2.49 ± 0.75 % dose/g
same,Biodistribution: Thyroid,30 min,24.09 ± 27.44 % dose/g
same,Biodistribution: Blood,1 hr,2.88 ± 0.28 % dose/g
same,Biodistribution: Brain,1 hr,0.62 ± 0.17 % dose/g
same,Biodistribution: Heart,1 hr,1.75 ± 0.26 % dose/g
same,Biodistribution: Kidney,1 hr,2.81 ± 0.70 % dose/g
same,Biodistribution: Liver,1 hr,7.70 ± 1.22 % dose/g
same,Biodistribution: Lung,1 hr,2.37 ± 0.29 % dose/g
same,Biodistribution: Muscle,1 hr,0.85 ± 0.06 % dose/g
same,Biodistribution: Skin,1 hr,2.46 ± 0.16 % dose/g
same,Biodistribution: Spleen,1 hr,1.75 ± 0.33 % dose/g
same,Biodistribution: Thyroid,1 hr,38.09 ± 6.37 % dose/g
same,Biodistribution: Blood,2 hr,2.21 ± 0.73 % dose/g
same,Biodistribution: Brain,2 hr,0.26 ± 0.01 % dose/g
same,Biodistribution: Heart,2 hr,1.22 ± 0.28 % dose/g
same,Biodistribution: Kidney,2 hr,1.86 ± 0.36 % dose/g
same,Biodistribution: Liver,2 hr,6.25 ± 1.79 % dose/g
same,Biodistribution: Lung,2 hr,1.85 ± 0.74 % dose/g
same,Biodistribution: Muscle,2 hr,0.44 ± 0.19 % dose/g
same,Biodistribution: Skin,2 hr,1.32 ± 0.41 % dose/g
same,Biodistribution: Spleen,2 hr,1.27 ± 0.24 % dose/g
same,Biodistribution: Thyroid,2 hr,215.05 ± 74.59 % dose/g
